{"source": "patent US20220041665A1", "about": "“POLYNUCLEOTIDE AND USES THEREOF” (Helsingin yliopisto, priority 2019, published 2022)", "type_in_all_cases": "cell-based, human", "key": {"[1]": {"system": "A431 cells with tagged DHC1", "assay": "Analysis of cell division in A431 cells with tagged DHC1", "method": "Cells were plated on μ-slide 8-well ibiTreat dishes at 0.1×10^5 cells per well 2 days before the experiment. On the experiment day, cells were loaded with 2 μM CellTracker™ Red CMTPX (Thermo, CAT #C34552) in complete medium for 15-30 min at 37° C. Medium was then changed to FluroBrite containing 10% FBS and incubated at 37° C. for 1-2 h before imaging to equilibrate the labelling. Cells were imaged with Nikon Eclipse Ti-E microscope equipped with 20× air objective, Nikon Perfect Focus System 3, Hamamatsu Flash 4.0 V2 scientific CMOS and Okolab stage top incubator system. Before recording, 6 fields for each of the 8 wells were selected with Celllracker™ Red fluorescence. IAA was then added at a final 0.5 mM concentration to IAA-treated cells, mixed well with pipetting, and time lapse imaging started immediately recording every 30 min for 16 h. Mitotic rounding cells were counted manually in the videos from 0.5 h to 6 h. Mitotic rounding cells without cell division were followed till 13 h."}, "[2]": {"system": "A549 cells with tagged EGFR", "assay": "EGF uptake in A549 cells with tagged EGFR", "method": "A549 cells were seeded at 0.4×10^5 cells per 4-well for 3 days. Medium was changed to fresh medium with or without 0.5 mM IAA for 1 h. Cells were washed twice with ice-cold serum free medium with 1% BSA and 0.2 ml of 2 μg/ml Alexa Fluor™ 647 EGF complex (ThermoFisher, E35351) in serum free medium with 1% BSA was added. Cells were further incubated at 37° C. for 20 min before harvesting with trypsin. Samples were kept on ice before FACS analysis. Alexa Fluor™ 647 was excited with 640 nm laser and detected with 720/40 detector, analysing 20 000 cells per sample. Negative control samples were cells incubated in medium without EGF complex. Background subtracted mean fluorescence intensity was used for analysis."}, "seipin-mEGFP": {"system": "seipin-mEGFP", "assay": "FACS screen of auxin perceptive proteins and degrons (mean GFP intensity) in A431 cell pools", "conditions": "cells expressing AtAFB2 and seipin-mEGFP with degron insertion; 0 h, 1 h, 16 h IAA", "method": "To search for an improved AID system to solve the issue, a pipeline was first established in human A431 cells to screen AID components (FIG. 2A). Various auxin perceptive proteins and degrons were selected for screening. Several TIR1 and AFB2 proteins from different plant species were tested, as well as degrons derived from AtIAA17 (SEQ ID NO: 3), these including amino acid (aa.) 65-132 (miniAID), aa. 62-109, aa. 71-114. All these degrons were included in the screen. […] These high affinity fragments were tested, assuming higher affinity might translate into more efficient inducible degradation. Degrons with KR dipeptide deletions were tested to see if they would have an effect on enhancing IAA binding affinity, IAA-inducible depletion or as part of a nuclear localization signal. […]\nFor FACS analysis, cells were seeded at 1:5 (for A431) or 1:3 (for A549) into 6-well plate in medium without selection on day 0. […] Cells were gated with SSC, FSC and trigger pulse width for singlets and 100 000 cells were analyzed for each sample. GFP was excited with 488 nm laser and detected with 530/40 detector; mCherry was excited with 561 nm lasers and detected with 615/20 detector. Data was analyzed with BD FACS Sortware. Background subtracted mean fluorescence intensity was used for analysis."}, "seipin": {"system": "seipin", "sequence (Q96G97+P93830 fused)": "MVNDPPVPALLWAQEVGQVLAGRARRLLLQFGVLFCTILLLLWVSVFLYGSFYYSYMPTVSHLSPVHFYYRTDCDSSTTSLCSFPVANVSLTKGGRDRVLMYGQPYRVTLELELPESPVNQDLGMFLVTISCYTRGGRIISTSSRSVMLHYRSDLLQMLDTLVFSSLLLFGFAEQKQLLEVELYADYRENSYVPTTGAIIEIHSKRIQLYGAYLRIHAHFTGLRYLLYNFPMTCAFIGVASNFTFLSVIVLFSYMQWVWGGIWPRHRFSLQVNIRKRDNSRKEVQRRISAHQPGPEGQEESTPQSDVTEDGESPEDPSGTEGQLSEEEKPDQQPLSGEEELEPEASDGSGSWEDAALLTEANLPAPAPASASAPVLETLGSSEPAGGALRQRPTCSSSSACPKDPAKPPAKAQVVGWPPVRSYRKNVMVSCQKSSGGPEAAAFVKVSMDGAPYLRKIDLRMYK", "assay": "Depletion of endogenous seipin tagged with mAID-mEGFP in A431 cells expressing OsTIR1", "conditions": "cells expressing OsTIR1, no IAA", "excerpt": "Initially seipin, a conserved transmembrane protein in the endoplasmic reticulum (ER) involved in lipid droplet (LD) biogenesis, was targeted for degradation. To rapidly deplete seipin from human A431 cells, an AID system, composed of TIR1 derived from Oryza sativa (OsTIR1) and mAID degron of 65 amino acids corresponding to AAs 68-132 of AtIAA17 (SEQ ID NO: 3), referred herein to as miniAID, was first employed. To this end, the endogenous seipin was homozygously tagged with mAID-mEGFP."}, "[3]": {"conditions": "control cells without auxin perceptive protein"}}}
{"molecule": "O=C(O)Cc1c[nH]c2ccccc12", "note": "[IAA, indole-3-acetic acid]", "values": [{"measurement": "fraction of mitotic rounding cells that completed cell division", "setting": "[1]; DHC1-AtAFB2 cells, after IAA addition for 30 min (0.5 mM)", "result": 0, "unit": "%"}, {"measurement": "effect of IAA per se on cell division", "setting": "[1]; [3]", "result": "did not affect"}, {"measurement": "reduction of EGF uptake", "setting": "[2]; EGFR-AtAFB2 cells, 1 h IAA treatment (0.5 mM)", "result": 75, "unit": "%"}, {"measurement": "effect of IAA per se on EGF uptake", "setting": "[2]; [3]", "result": "did not affect"}]}
{"molecule": "aa.82-101: minimal truncated AtIAA7 degron, aa. 82-101 of SEQ ID NO: 1 (QVVGWPPVRNYRKNMMTQQK; listed as Arabidopsis thaliana)", "values": [{"measurement": "auxin-inducible degradation of truncated AtIAA7 degron", "setting": "seipin-mEGFP", "result": "similarly to miniIAA7"}]}
{"molecule": "miniAID: mAID degron of 65 amino acids corresponding to AAs 68-132 of AtIAA17 (SEQ ID NO: 3)", "values": [{"measurement": "degradation of tagged seipin without IAA addition", "setting": "seipin", "result": "severely degraded"}]}
